These results are taken from patent publication US20260364210A1, “COMPOSITIONS AND METHODS FOR TRANSGLUTAMINASE-MEDIATED ENDOCYTOSIS” (The Board of Trustees of the Leland Stanford Junior …, priority 2022, published 2026).

Residues, ends and D or L forms follow the SMILES beside them.

Series [1] relates to streptavidin. Description: Endocytosis of fluorescent streptavidin by NRK cells. It is filed as cell-based, rat. As for the experimental part: FIG. 11: (A) Treating NRK cells with increasing concentrations of HB-3-003 in the presence of fluorescently tagged streptavidin leads to increased internalization of streptavidin after a 90 min treatment. (B) Quantification of dose response.
In order to determine the ability of this pathway to clear specifically targeted proteins from the extracellular environment, we synthesized a pentapeptide harboring the electrophilic warhead and a PEG-4 biotin conjugated to the DAB substituted Y amino acid (HB2110). Streptavidin is expected to bind to the biotin arm of the probe, and thus be endocytosed along with the rest of the complex as previously described. To test this hypothesis NRK cells were treated with 2 μM HB2110 and 1 μM Cy5-conjugated streptavidin.
We also synthesized the equivalent pentapeptide harbouring a Gln residue in the place of the electrophilic warhead, with biotin conjugated to the DAB substituted Y amino acid through a PEG linker (HB3-3). We then assed the ability of cells to endocytose fluorescent streptavidin in the presence of HB3-3 and α2M.

The test system of series [2] is α2M. Description: Internalization of fluorescently labeled α2M by NRK cells in the presence of unlabeled TG2 inhibitors. It is filed as cell-based, rat. Particulars: 100 μM cystamine by itself. As for the experimental part:
FIG. 5A-5C: (A) HB-225 induces a dose dependent uptake of fluorescently tagged α2M.
To identify the conformational requirements for high-affinity recognition of TG2 by α2M, fluorescently labeled α2M was added to NRK cell cultures in the presence of different (unlabeled) TG2 inhibitors.

Series [3] has as its system TG2. Particulars: role: inhibitor; absence of active site occupancy; Palanski and Khosla, 2018; cited from earlier work.
In series [4] the test system is clathrin mediated endocytosis. In words: Inhibition of α2M / 33-mer endocytosis by inhibitors of clathrin mediated endocytosis in NRK cells. The format is cell-based, rat. An excerpt: FIG. 7A-7D: (A) Endocytosis of α2M (green) and 33 mer gluten peptide (red) by NRK cells.
Low density lipoprotein (LDL) receptor-related protein 1 (LRP-1, a.k.a., (α2M receptor or CD91), a member of the LDL receptor family, is responsible for receptor-mediated endocytosis of α2M. Although this receptor is expressed on the surface of a wide range of cell types within the body, α2M endocytosis by LRP-1 is only triggered when this ubiquitous plasma protein undergoes a conformational change upon binding to its protease or non-protease ligands (Bres and Faissner, 2019). We sought to establish whether endocytosis of the ternary α2M-TG2-peptide complex was mediated by LRP-1 using pharmacologic inhibitors of clathrin mediated endocytosis.

Series [5] concerns the target T1, human TG2 (Homo sapiens, UniProt P21980).
T1 sequence (P21980 1-687): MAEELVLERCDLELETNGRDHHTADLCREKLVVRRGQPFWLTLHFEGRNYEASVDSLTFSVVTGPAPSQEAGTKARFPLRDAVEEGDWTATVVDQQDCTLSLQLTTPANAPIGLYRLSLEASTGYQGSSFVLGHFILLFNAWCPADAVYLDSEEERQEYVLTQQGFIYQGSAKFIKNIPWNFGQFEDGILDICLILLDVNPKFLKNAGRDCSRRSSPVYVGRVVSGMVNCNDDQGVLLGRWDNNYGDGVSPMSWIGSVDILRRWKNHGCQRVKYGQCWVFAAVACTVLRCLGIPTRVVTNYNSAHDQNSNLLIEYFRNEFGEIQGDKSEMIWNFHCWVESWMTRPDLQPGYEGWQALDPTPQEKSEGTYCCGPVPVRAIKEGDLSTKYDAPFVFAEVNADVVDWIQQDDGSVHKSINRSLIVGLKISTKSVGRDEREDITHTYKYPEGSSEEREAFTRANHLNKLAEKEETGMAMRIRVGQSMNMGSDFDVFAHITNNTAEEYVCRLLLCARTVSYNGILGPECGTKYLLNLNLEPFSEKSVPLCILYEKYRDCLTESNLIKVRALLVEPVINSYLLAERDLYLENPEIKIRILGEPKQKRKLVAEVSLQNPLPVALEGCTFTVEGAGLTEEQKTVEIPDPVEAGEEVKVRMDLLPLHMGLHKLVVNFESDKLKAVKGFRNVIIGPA
In words: Steady-state kinetic analysis / TG2 inhibition. The note with it: role: inhibitor, substrate PQLPF and inhibitor concentrations varied. It is filed as biochemical. An excerpt:
FIG. 1: Kinetic analysis of TG2 inhibition by HB-225. Both substrate (PQLPF) and inhibitor concentrations were varied.
FIG. 2: Comparison of TG2 inhibition by HB-225 and HB-230. The two compounds have very similar kinetic properties.
Encouraged by this finding, we went on to design and synthesize our target fluorescent probe, HB230, in which a second unnatural amino acid residue, diaminobutyrate (DAB), was installed in place of Leu (L) in HB225. This residue was also predicted to neither be recognized by TG2 nor HLA-DQ2. Attachment of a Sulfo-Cy5 fluorophore via amide linkage to the DAB residue yielded the desired probe.

The test system of series [6] is normal rat kidney (NRK) cells. In words: Uptake of fluorescent probe by NRK cells with or without α2M. It is filed as cell-based. An excerpt: (C) Fluorescently tagged α2M colocalizes strongly with HB-230.
FIG. 15. Uptake of HB-2121.
Puncta of two distinct sizes were observed.
To verify that HB230 internalization was dependent on TG2 activity, HB258 was designed and synthesized as a control probe. This dihydro-analog is otherwise identical to HB230 but lacks its electrophilic warhead and is therefore unable to irreversibly bond to the active site C277 residue of TG2.

Series [7] deals with NRK cells. In words: Intracellular payload (Cy5) release in NRK cells with or without cathepsin B inhibitor. It is filed as cell-based, rat. As for the experimental part:
FIG. 13A-13B: (A) HB-2108 is strongly endocytosed and cleaved leading to diffuse staining, (B) Inhibiting Cathepsin B mitigates diffuse pattern.
We synthesized HB2108, by linking AcPQLPF to Cy5 via a cathepsin-labile valine-citrulline linker. NRK cells were then treated with HB2108 and α2M in the presence and absence of a cathepsin B inhibitor.

Series [8] deals with chymotrypsin. Description: Metabolism by chymotrypsin. The note with it: role: substrate. The format is in vitro ADME. From the text:
(§1) FIGS. 14A-14B. Metabolic stability of HB-230 and HB-2121. (A) HB-230 is transformed by chymotrypsin to give the C-terminal carboxylic acid. This metabolite is subsequently cleaved by carboxypeptidase to give the tetrapeptide without the terminal phenylalanine. (B) HB-2121 is stable to both chymotrypsin and carboxypeptidase mediated metabolism.
(§2) HB-2121 is analogous to the TG2 inhibitor/probe HB-230 but with one modification; the primary amide C-terminus of HB-230 was replaced with a tertiary dimethyl amide. This change greatly enhances the gastrointestinal stability of the probe.

Series [9] deals with carboxypeptidase. Description: Metabolism by carboxypeptidase. Particulars: role: substrate, subsequent to chymotrypsin. The format is in vitro ADME.
From the text: as §1, §2

Series [10] relates to NRK cells. Description: Co-localized endocytosis of Sulfo-Cy5 33-mer gluten peptide and fluorescent α2M in NRK cells. Particulars: Sulfo-Cy5-tagged 33 mer; compared with α2M and HB230. The format is cell-based, rat. How it is done:
FIGS. 6A-6B: Fluorescently tagged 33 mer peptide (A) induces a similar pattern of internalization of α2M as HB-230 (B).
Thus far, endocytosis of the TG2-α2M complex had exclusively been visualized using peptidic probes that irreversibly label the active site of TG2. To investigate whether transient enzyme-substrate complexes can be efficiently internalized in an α2M-dependent manner, NRK cells were co-incubated with fluorescent α2M and the aforementioned 33-residue gluten peptide (33 mer) tagged with a Sulfo-Cy5 fluorophore.

For series [11], the system named is cubilin. In words: Depletion of cell surface cubilin on NRK cells. It is filed as cell-based, rat. As for the experimental part:
FIG. 12A-12C: (A) Treating NRK cells with increasing concentrations of HB-3-002 leads to decrease of cell membrane cubilin after a 90 min treatment. (B) Quantification of dose response.
Cell surface proteins can also be pharmacological targets. Thus we targeted cubilin, the canonical receptor for the intrinsic factor (IF)-vitamin B12 complex. We synthesized a pentapeptide harbouring a Gln residue in the X position, and vitamin B12 conjugated to the DAB substituted Y amino acid through a PEG-5 linker (HB3-2). […] Cubilin is stained using a sheep anti cubilin antibody which recognizes rat cubilin and an ovine Alexa-647 secondary antibody.

The mark [12] stands for this setting: high concentrations of both the probe and α2M.

As to `O=C(O)CCCC[C@@H]1SC[C@@H]2NC(=O)N[C@@H]21` [Biotin, reference compound], the “uptake of streptavidin by individual components” value in series [1] (component alone, NRK cells) is listed as “do not lead to increased uptake of streptavidin”.
Take `NCCSSCCN` [Cystamine, cystamine]: in series [2], the “internalization of fluorescent α2M” value is on record as “unable to promote rapid internalization of fluorescent α2M by itself”. In addition, the “inactivation of TG2” value in series [3] is recorded as “inactivates TG2 by promoting C370-C371 disulfide bond formation”.
In the case of `O=C(N/N=C/c1cc(O)c(O)cc1O)c1cc2ccccc2cc1O` [Dyno-4a], in [4] (20 uM Dyno-4a), the “inhibition of α2M and peptide colocalization as large endocytic puncta” value (“inhibition … as large endocytic puncta” below) is reported as “strong inhibition”.
For `CC(=O)N1CCC[C@H]1C(=O)N[C@@H](CCC(N)=O)C(=O)N[C@@H](CCC(=O)NCCOCCOCCNC(=O)CCCC[C@@H]1SC[C@@H]2NC(=O)N[C@@H]21)C(=O)N1CCC[C@H]1C(=O)N[C@@H](Cc1ccccc1)C(N)=O` [HB-3-003] (HELM PEPTIDE1{[ac].P.Q.E.P.F.[am]}|CHEM1{[O=C(CCCC[C@@H]1SC[C@@H]2NC(=O)N[C@@H]21)NCCOCCOCCN[*:1]]}$PEPTIDE1,CHEM1,4:R3-1:R1$$$V2.0), in series [1] (presence of α2M, 90 min), the “endocytosis of fluorescent streptavidin” value is recorded as “endocytosed in an HB3-3 dose dependent manner”.
A word on the Ki: it is the dissociation constant of the complex between target and ligand, obtained from inhibition or displacement. Low values mean tighter binding, high ones weaker binding. Consider `CC(=O)N1CCC[C@H]1C(=O)N[C@@H](CC/C=C/C(=O)N(C)C)C(=O)N[C@@H](CC(C)C)C(=O)N1CCC[C@H]1C(=O)N[C@@H](Cc1ccccc1)C(N)=O` [HB-225] (HELM PEPTIDE1{[ac].P.[CN(C)C(=O)/C=C/CC[C@H](N[*:1])C(=O)[*:2]].L.P.F.[am]}$$$$V2.0), for which, in series [5], the Ki was found to be 13 µM. In addition, in series [5] (read-out: ki (inactivation of TG2) (converted)), the kinact was 0.000833 s⁻¹.
`CC(=O)N1CCC[C@H]1C(=O)N[C@@H](CCCCC(=O)N(C)C)C(=O)N[C@@H](CCNC(=O)CCCCC[N+]1=C(/C=C/C=C/C=C2/N(C)c3ccc(S(=O)(=O)O)cc3C2(C)C)C(C)(C)c2cc(S(=O)(=O)[O-])ccc21)C(=O)N1CCC[C@H]1C(=O)N[C@@H](Cc1ccccc1)C(N)=O` [HB-258]: in series [6] (setting [12]), the “appearance of intracellular puncta” value is listed as “only appears as small intracellular puncta” and the “uptake by NRK cells (probe without electrophilic warhead)” value is recorded as “does not undergo significant uptake by NRK cells”.
Regarding `CC(=O)N1CCC[C@H]1C(=O)N[C@@H](CCC(N)=O)C(=O)N[C@@H](CC(C)C)C(=O)N1CCC[C@H]1C(=O)N[C@@H](Cc1ccccc1)C(=O)N[C@H](C(=O)N[C@@H](CCCNC(N)=O)C(=O)NCCCCCCNC(=O)CCCCC[N+]1=C(/C=C/C=C/C=C2/N(C)c3ccccc3C2(C)C)C(C)(C)c2ccccc21)C(C)C` [HB-2108] (HELM PEPTIDE1{[ac].P.Q.L.P.F.V.[Cit].[CN1/C(=C/C=C/C=C/C2=[N+](CCCCCC(=O)NCCCCCCN[*:1])c3ccccc3C2(C)C)C(C)(C)c2ccccc21]}$$$$V2.0), the “Cy5 staining / colocalization with α2M” value was “very diffuse and no longer colocalizes with α2M” in series [7] (absence of cathepsin B inhibitor); “remains strongly colocalized with α2M in the lysosome” in series [7] (pre-treatment with cathepsin inhibitor).
As to `CC(=O)N1CCC[C@H]1C(=O)N[C@@H](CC/C=C/C(=O)N(C)C)C(=O)N[C@@H](CCNC(=O)CCCCC[N+]1=C(/C=C/C=C/C=C2/N(C)c3ccc(S(=O)(=O)O)cc3C2(C)C)C(C)(C)c2cc(S(=O)(=O)[O-])ccc21)C(=O)N1CCC[C@H]1C(=O)N[C@@H](Cc1ccccc1)C(=O)N(C)C` [HB-2121], the metabolism by chymotrypsin entry in series [8] was “complete resistance to metabolism”. In addition, in series [6] (2 μM HB-2121, with or without 100 μg/mL α-2-macroglobulin), the “uptake by NRK cells with or without α-2-macroglobulin” value is given as “α2M-enhanced endocytic uptake”. Besides, in [9], the metabolism by carboxypeptidase result is listed as “no subsequent metabolism”.
For `O=C1N=C(NS(=O)(=O)c2cccc3ccccc23)S/C1=C\c1ccc(Br)cc1` [Pitstop-2], in [4] (25 uM Pitstop), the “inhibition … as large endocytic puncta” value is on record as “strong inhibition”.
Consider “LQLQPFPQPQLPYPQPQLPYPQPQLPYPQPQPF [33 mer, 33-residue gluten peptide tagged with a Sulfo-Cy5 fluorophore]”, for which the “co-localized endocytosis with fluorescent α2M” value in series [10] was “entirely analogous pattern of co-localized endocytosis”.
As to methyl-β-cyclodextrin, the “inhibition … as large endocytic puncta” value in series [4] (12.5 mM MβCD) is “strong inhibition”.
In the case of vitamin B12 [reference compound], the “depletion of cubilin by individual components” value in series [11] (component alone) is “do not promote the depletion of cubilin”.

B1: RAP: inhibitor of LRP-1 (protein, UniProt P30533 35-357, looked up)
Alpha-2-macroglobulin …: YSREKNQPKPSPKRESGEEFRMEKLNQLWEKAQRLHLPPVRLAELHADLKIQERDELAWKKLKLDGLDEDGEKEARLIRNLNVILAKYGLDGKKDARQVTSNSLSGTQEDGLDDPRLEKLWHKAKTSGKFSGEELDKLWREFLHHKEKVHEYNVLLETLSRTEEIHENVISPSDLSDIKGSVLHSRHTELKEKLRSINQGLDRLRRVSHQGYSTEAEFEEPRVIDLWDLAQSANLTDKELEAFREELKHFEAKIEKHNHYQKQLEIAHEKLRHAESVGDGERVSRSREKHALLEGRTKELGYTVKKHLQDLSGRISRARHNEL
In the case of B1, the “effect of LRP-1 inhibition on depletion of surface cubilin” value in series [11] (LRP-1 inhibited through RAP, HB3-2 with intrinsic factor) is given as “mitigates the depletion of surface cubilin”.
